Data set [1] in a line: Aqueous solubility with mPEG2000-DSPE formulation. In kind it is physicochemical. The conditions noted are these: water with mPEG2000-DSPE formulation, aqueous with cosolvent or surfactant or cyclodextrin. How it is done: In addition, the aqueous solubility of […] increased to 10 mg/mL with mPEG2000-DSPE formulation.
For data set [2] the following is noted: stated as known; cited from earlier work.
For another data set, the system named is HepG2. In words: SRB cytotoxicity assay, HepG2. The conditions noted are these: Homo sapiens. In kind it is cell-based. The source says: (§1) Human hepatoma cell lines Hep3B, HepG2, HepG2/2.2.15, Huh-7 and Sk-Hep-1, human glioblastoma cell line RG-2, and human prostate cancer cell line DU145 were maintained in DMEM (HyClone Laboratories, Logan, Utah, USA). Human prostate cancer cell line LNCap was maintained in RPMI-1640 culture medium (Sigma-Aldrich, St. Louis, Mo., USA). […] Human prostate cancer cell line PC-3 was maintained in the Ham's F-12K medium (Invitrogen, Carlsbad, Calif., USA) with the same medium supplements described in the culture medium except that the fetal bovine serum concentration was reduced to 7% by volume. Cancer cells were maintained at 37° C. in a humidified incubator (Nuaire, USA) containing 5% CO2.
(§2) The SRB assay was used for measuring cancer cell viability. The cancer cells in the plate wells were rinsed with 1× PBS and treated with 1× trypsin-EDTA (Invitrogen, Carlsbad, Calif.). The culture medium was added to dilute the trypsin-EDTA. The detached cancer cells were harvested by centrifugation and suspended in the 1 ml culture medium. Ten μl of the cell suspension was dispensed into counting chambers and the cell density was determined microscopically. The cells in 198 μl suspensions were seeded onto a 96-well cell plate (Nunc, Rochester, N.Y.) at the appropriate cell density per well and incubated in the cell culture incubator overnight.
(§3) We evaluated the ant-cancer activity of the following CPT derivatives pharmaceutical compositions: • 1. TLC388 HCl, a non-water soluble CPT derivative (obtained from ScinoPharm Taiwan Ltd., Taiwan); • 2. […]
(§4) At the end of the incubation period, cells were fixed by adding 50 μl of cold 50% TCA (w/v) (Sigma, St Louis, Mo., USA) to a final concentration of 10% TCA and further incubated at 4° C. for 60 minutes. […] Bound stain in each well was solubilized with 100 μl of 10 mM trizma base (Bioshop, Burlington, ON, Canada), and the absorbance was measured using an automated plate reader (Anthos 2001, Anthos Labtec Instrument) at 540 nm.
(§5) The graph and data were analyzed by SigmaPlot 10.0 software and Microsoft Excel 2002.
A general note: Sulforhodamine B stains cellular protein and so reports cell mass.

Another data set deals with HepG2/2.2.15. In words: SRB cytotoxicity assay, HepG2/2.2.15. Format: cell-based. The note with it: Homo sapiens.
Excerpt: as §1, §2, §3, §4, §5

The next data set deals with Huh-7. In words: SRB cytotoxicity assay, Huh-7. In kind it is cell-based. The conditions noted are these: Homo sapiens.
Excerpt: as §1, §2, §3, §4, §5

A further data set has as its system Hep3B. As to the kind of experiment: SRB cytotoxicity assay, Hep3B. In kind it is cell-based. The note with it: Homo sapiens.
Excerpt: as §1, §2, §3, §4, §5

In the next data set the test system is Sk-Hep-1. In words: SRB cytotoxicity assay, Sk-Hep-1. In kind it is cell-based. The conditions noted are these: Homo sapiens, SK-HEP1.
Excerpt: as §1, §2, §3, §4, §5

The next data set relates to DU145. As to the kind of experiment: SRB cytotoxicity assay, DU145. In kind it is cell-based. The conditions noted are these: Homo sapiens, DU-145.
Excerpt: as §1, §2, §3, §4, §5

The next data set relates to LNCap. As to the kind of experiment: SRB cytotoxicity assay, LNCap. Format: cell-based. The note with it: Homo sapiens.
Excerpt: as §1, §2, §3, §4, §5

The test system of the next data set is PC-3. In words: SRB cytotoxicity assay, PC-3. The note with it: Homo sapiens. Format: cell-based.
Excerpt: as §1, §2, §3, §4, §5

A further data set concerns HCT116. In words: SRB cytotoxicity assay, HCT116 (colon cancer). Format: cell-based. The note with it: Homo sapiens, HCT-116; HCT116, incubation 72 h. How it is done:
as §2, §3, §4, §5

The next data set has as its system HT29. As to the kind of experiment: SRB cytotoxicity assay, HT29 (colon cancer). Format: cell-based. The note with it: Homo sapiens, HT-29; HT29, incubation 72 h. How it is done:
as §2, §3, §4, §5

The test system of a further data set is RG-2. As to the kind of experiment: SRB cytotoxicity assay, RG-2 glioma cell line. Format: cell-based. The conditions noted are these: Homo sapiens, RG2.
Excerpt: as §1, §2, §3, §4, §5

The test system of data set [3] is erythroid Colony Forming Cells (CFCs). In words: Bone marrow suppression evaluation, colony assay, erythroid progenitors. Format: cell-based. The note with it: human bone marrow progenitors, methylcellulose colony assay, 14-16 days. How it is done:
(§6) An in vitro evaluation of the effect of the pharmaceutical compositions on human bone marrow cells was performed.
(§7) Protocol: Clonogenic progenitors of the erythroid (CFU-E, BFU-E), granulocyte-monocyte (CFU-GM) and multipotential lineages (CFU-GEMM) were set up in methylcellulose-based medium (R&D Systems) containing recombinant rhSCF (50 ng/mL), rhIL-3 (10 ng/mL), rhGM-CSF (10 ng/mL),and rhEpo (3 U/mL).
(§8) TLC388 HCl and Topotecan were diluted in DMSO and Lipotecan® was diluted in sterile water to provide the appropriate working stock concentrations. These working stock solutions were subsequently added to the methylcellulose-based colony assay medium described above. The colony assay mediums were set up in triplicate at 2×10^4 cells per culture medium.
(§9) The replicate culture mediums were incubated at 37° C. in 5% CO2 for 14-16 days. After this time, the resultant colonies in the culture medium were evaluated by a senior scientist in term of size and morphology.

A further data set concerns myeloid CFCs. As to the kind of experiment: Bone marrow suppression evaluation, colony assay, myeloid progenitors. Format: cell-based. The conditions noted are these: human bone marrow progenitors, methylcellulose colony assay, 14-16 days. On the procedure: as §6, §7, §8, §9

Molecules are shown by their SMILES. Bounds are passed on as bounds.

In [1], `CC[C@@]1(OC(=O)C(C)(C)ON=C2c3cc([N+](=O)[O-])cc([N+](=O)[O-])c3-c3c2cc([N+](=O)[O-])cc3[N+](=O)[O-])C(=O)OCc2c1cc1n(c2=O)Cc2cc3c(CN(C)C)c(O)ccc3nc2-1.Cl` [TLC1988 HCl, (S)-10-[(dimethylamino)methyl]-4-ethyl-9-hydroxy-4-O-[2-methyl-2-(2″,4″,5″,7″-tetranitro-9″-fluorenylideneaminooxy)propionyl]-1H-pyrano[3′,4′:6,7]indolizino[1,2-b]quinoline-3,14-(4H,12H)-dione, monohydrochloride] registered a solubility of 10000 µg/mL. Moreover, the “stability in an alkaline condition” value in data set [2] is on record as “unstable in an alkaline condition”.
For `CC[C@@]1(O)C(=O)OCc2c1cc1n(c2=O)Cc2cc3c(CN(C)C)c(O)ccc3nc2-1` [Topotecan], the IC50 in the data set on HepG2 (HepG2, incubation 24 h) was 57.5 µM; in the data set on HepG2 (HepG2, incubation 48 h), 2.73 µM; in the data set with HepG2 (HepG2, incubation 72 h) it was 0.686 µM; in the data set with HepG2/2.2.15 (HepG2/2.2.15, incubation 24 h), more than 50 µM; in the data set with HepG2/2.2.15 (HepG2/2.2.15, incubation 48 h), 63.1 µM; in the data set with HepG2/2.2.15 (HepG2/2.2.15, incubation 72 h), 0.58 µM. For the same compound, the IC50 in the data set with Huh-7 (Huh-7, incubation 24 h) was 65.3 µM; with Huh-7 (Huh-7, incubation 48 h), 5.05 µM; in the data set with Huh-7 (Huh-7, incubation 72 h) it was 2.8 µM; in the data set with Hep3B (incubation 24 h), more than 50 µM; in the data set with Hep3B (incubation 48 h), 64.6 µM; with Hep3B (incubation 72 h), 0.2 µM. The IC50 in the data set with Sk-Hep-1 (Sk-Hep-1, incubation 24 h) stood at 74.9 µM; in the data set with Sk-Hep-1 (Sk-Hep-1, incubation 48 h) it was 12.5 µM; in the data set with Sk-Hep-1 (Sk-Hep-1, incubation 72 h), 2.1 µM; in the data set with DU145 (DU145, incubation 24 h), 2.25 µM; in the data set with DU145 (DU145, incubation 48 h) it was 0.6 µM; with DU145 (DU145, incubation 72 h), 0.58 µM. In addition, the IC50 in the data set with LNCap (incubation 24 h) turned out to be 14.9 µM; in the data set on LNCap (incubation 48 h) it was 6.15 µM; in the data set on LNCap (incubation 72 h), 2.59 µM; with PC-3 (PC-3, incubation 24 h), 131 µM; with PC-3 (PC-3, incubation 48 h) it was 18.1 µM; in the data set with PC-3 (PC-3, incubation 72 h) it was 3.58 µM. The IC50 amounted to 0.008 µM in the data set on HCT116; 0.038 µM in the data set with HT29; 7.23 µM with RG-2 (RG-2, incubation 24 h); 2.78 µM with RG-2 (RG-2, incubation 48 h); 3 µM with RG-2 (RG-2, incubation 72 h); 0.0118 µM in [3]. Moreover, inhibition in the data set with myeloid CFCs was half-maximal at 0.0087 µM (IC50).

The term solubility denotes how much of the substance goes into solution per volume. Higher therefore signals a readily soluble substance. The term IC50 denotes the point on the concentration scale where inhibition reaches its midpoint. Low readings indicate higher potency, high ones lower potency.

(Values after US10980798B2, “Pharmaceutical compositions of hydrophobic camptothecin derivatives” (Taiwan Liposome Company, Ltd., priority 2011, dated 2021).)
